# Data: patent US20230312564A1, “AROMATIC RING-LACTAM COMPOUND, PREPARATION METHOD THEREFOR AND USE THEREOF” (SHANGHAI RINGENE BIOPHARMA CO., LTD., priority 2020, published 2023)
# Values joined by “and” are separate entries in the source; they are usually repeats but may differ in a detail not shown here. Identical values can stand only once. Like-named read-outs stand apart in the source and are kept apart here.
# Tests used:
# Colo-205 cells = experiment: Colo-205 tumor cell proliferation, CCK-8, 72 hours; format: cell-based; conditions: for IC50: read-out: Colo-205 IC50; for cell proliferation inhibitory activity (in words): Colo-205
# Experimental: 1. Test method: Colo-205 cells (ATCC) in logarithmic growth phase were inoculated into a 96-well culture plate at an appropriate density with 90 μL per well. After overnight culture, different concentrations of the compound were added and acted for 72 hours, and a solvent control group (negative control) was set. After the compound was acted on cells for 72 hours, the effect of the compound on cell proliferation was detected by the cell counting kit CCK-8 (Dojindo), and 10 μL of CCK-8 reagent was added to each well. After the plate was placed in a 37° C. incubator for 2 to 4 hours, a full-wavelength microplate reader SpectraMax 190 was adopted for obtaining the readings with a measured wavelength of 450 nm. […] The IC50 value was obtained by four-parameter regression with the software attached to the microplate reader.
# [1] = Liver microsomal metabolic stability, human; format: in vitro ADME; conditions: 0.5 mg/mL microsomes, 1 μM compound, NADPH; for half-life at 1 μM: liver microsomes, read-out: Liver microsomal stability T1/2
# Experimental: (§1) The reaction was stopped with tinidazole-containing acetonitrile at 0 min, 5 min, 10 min and 30 min, respectively. After vortexing for 10 min and centrifuging at 15,000 rmp for 10 min, 50 μL of the supernatant was injected into a 96-well plate. The metabolic stability of the compound was calculated by determining the relative reduction of the drug, calculated as half-life T1/2.
# [2] = Liver microsomal metabolic stability, dog; format: in vitro ADME; conditions: 0.5 mg/mL microsomes, 1 μM compound, NADPH; for half-life at 1 μM: liver microsomes, read-out: Liver microsomal stability T1/2
# Experimental: as §1
# [3] = Liver microsomal metabolic stability, rat; format: in vitro ADME; conditions: 0.5 mg/mL microsomes, 1 μM compound, NADPH; for half-life at 1 μM: liver microsomes, read-out: Liver microsomal stability T1/2
# Experimental: as §1
# [4] = test system: Colo-205 transplanted tumor; experiment: Growth inhibition of nude mice Colo-205 transplanted tumor; format: in vivo; conditions: 50 mg/kg, qdx21, po
# Experimental: The tumor tissue in the vigorous growth phase was cut into about 1.5 mm^3 and inoculated subcutaneously in the right axilla of nude mice under sterile conditions. The diameter of subcutaneous transplanted tumors in nude mice was measured with a vernier caliper, and the mice were randomly divided into groups when the average tumor volume reached about 130 mm^3. The embodiment compounds (injection water containing 1% Tween 80 were configured to a desired concentration for later use) were orally administered daily at a given dose for three consecutive weeks, and the solvent control group was administered with the same amount of solvent. During the whole test, the diameter of transplanted tumor was measured twice a week, and the mice were weighed at the same time. The calculation formula of tumor volume (TV) is expressed as TV=1/2×a×b^2, wherein a and b represent length and width, respectively. The relative tumor volume (RTV) was calculated according to the measurement results, and the calculation formula is RTV=Vt/V0, wherein V0 is the tumor volume measured when administered in separate cages (i.e., d0), and Vt is the tumor volume at the time of each measurement.
# [5] = In-vivo pharmacokinetic parameters in mice; set-up: species or system Balb-c mice
# Experimental: Six male SPF grade SD rats or Balb-c mice (Shanghai Sipple-Bikai Laboratory Animal) were divided into two groups, and the tested compounds were prepared into appropriate solutions or suspensions; one group was administered intravenously (with a dose of 1 mg/kg), and the other group was administered orally (with a dose of 5 mg/kg). Blood samples were collected by jugular vein puncture, and each sample was collected with a volume of about 0.2 mL/time point, and heparin sodium was used for anticoagulation. The time points of blood collection were listed below: 5, 15 and 30 min […], 1, 2, 4, 6, 8 and 24 h after administration; the collected blood samples were placed on ice and centrifuged to separate plasma (centrifugation conditions: 8,000 rpm, 6 min, 2 to 8° C.), and the collected plasma was stored at −80° C. before analysis. Plasma samples were analyzed by LC-MS/MS.
# The pharmacokinetic parameters such as AUC0-t, AUC0-∞, MRT0-∞, Cmax, Tmax, T1/2 and Vd of the tested compounds and their mean values and standard deviations were calculated by the pharmacokinetic calculation software WinNonlin5.2 non-compartmental model according to the plasma concentration data. In addition, the bioavailability (F) was calculated by the following formula.
# For samples with concentrations below the lower limit of quantitation, while pharmacokinetic parameter calculations were performed, samples sampled before Cmax was reached should be calculated as a zero value and samples sampled after Cmax was reached should be calculated as below limit of quantitation (BLQ).
# ERK1/2 kinase = target: T1, ERK1/2 kinase; experiment: ERK1/2 kinase (Carna) inhibitory activity, Caliper mobility shift; format: biochemical; conditions: for IC50: read-out: ERK½ IC50
# T1 construct: fused on or other part: Carna's ERK products carry a GST tag by vendor knowledge
# Experimental: (1) Preparation of 1×Kinase buffer; (2) preparation of compound concentration gradient: the initial test concentration of the tested compound was 10 μM, which was 3-fold diluted to 10 concentrations, and a duplicate test was conducted, and then the tested compound was diluted in a 96 well plate to a 100-fold final concentration of 10 different concentrations of solution. […] Log (inhibitor) vs. response—Variable slope of the analysis software GraphPad Prism 5 was used to fit the dose-effect curve to obtain the IC50 value of each compound on the enzyme activity.
# 2. […] (A<10 nM, 10 nM≤B<200 nM, C≥200 nM)
# [6] = Liver microsomal stability, comparisons in words across species; format: in vitro ADME
# Experimental: as §1
# [7] = male, Balb-c, mouse, plasma, IV, 1 mg/kg
# [8] = male, Balb-c, mouse, plasma, PO, 5 mg/kg
# [9] = Homo sapiens, COLO 205, 72 hours, CCK-8, class symbols
# [10] = Homo sapiens, COLO 205, 72 hours, CCK-8, numeric values
# [11] = rat, dog and human, compared with the comparative compound 1
compound,measurement,setting,value
"Cc1cccc([C@@H](CO)NC(=O)[C@@H](C)N2Cc3c(F)cc(-c4nc(NC5CCOCC5)ncc4Cl)cc3C2=O)c1 [Comparative compound 4, (R)-2-(6-(5-Chloro-2-((tetrahydro-2H-pyran-4-yl)amino)pyrimidin-4-yl)-4-fluoro-1-oxoisoindolin-2-yl)-N—((S)-2-hydroxy-1-(m-tolyl)ethyl)propanamide, reference compound]",IC50,"Colo-205 cells; Homo sapiens, COLO 205, 72 h",37.8 nM
same,half-life at 1 μM,[1],3 min
same,half-life at 1 μM,[2],60 min
same,half-life at 1 μM,[3],3 min
"Cc1cccc([C@@H](CO)NC(=O)[C@@H](C)N2Cc3ccc(-c4nc(NC5CCOCC5)ncc4F)c(F)c3C2=O)c1 [Embodiment 31, (R)-2-(7-Fluoro-6-(5-fluoro-2-((tetrahydro-2H-pyran-4-yl)amino)pyrimidin-4-yl)-1-oxoisoindolin-2-yl)-N—((S)-2-hydroxy-1-(m-tolyl)ethyl)propanamide]",T/C,[4],27.9%
same,Initial weight (D0),[4]; D0,20.1 g
same,Terminal weight (D21),[4]; D21,21.7 g
same,Initial tumor volume,[4]; initial,96 ± 21 mm^3
same,Terminal tumor volume,[4]; terminal,271 ± 128 mm^3
same,F,[5]; PO 5 mg/kg vs IV 1 mg/kg,52%
same,AUC(0-inf),[5]; [7],0.407 µM·h
same,AUC(0-t),[5]; [7],0.397 µM·h
same,MRT inf,[5]; [7],30 min
same,clearance,[5]; [7],75 mL/min/kg
same,half-life,[5]; [7],84 min
same,Vd,"[5]; male, Balb-c, mouse, plasma, IV, 1 mg/kg, read-out: Vss",2 L/kg
same,AUC(0-inf),[5]; [8],1.06 µM·h
same,AUC(0-t),[5]; [8],1.05 µM·h
same,Cmax,[5]; [8],1170 nM
same,Tmax,[5]; [8],18 min
same,half-life,[5]; [8],90 min
Cc1cccc([C@@H](CO)NC(=O)[C@@H](C)N2Cc3ccc(-c4cc(NC5CCOCC5)ncc4C)nc3C2=O)c1 [Embodiment 14],IC50,Colo-205 cells; [9],100 to 1000 nM
same,IC50,ERK1/2 kinase; class symbols,10 to 200 nM
C[C@H](C(=O)N[C@H](CO)c1cccc(Cl)c1)N1Cc2ccc(-c3nc(NC4CCC(O)C(F)C4)ncc3F)c(F)c2C1=O (stereo partly shown) [Embodiment 39],IC50,Colo-205 cells; [9],100 to 1000 nM
same,enzyme inhibitory activity (in words),ERK1/2 kinase,extremely strong enzyme inhibitory activity
same,IC50,ERK1/2 kinase; class symbols,< 10 nM
"C[C@H](C(=O)N[C@H](CO)c1cccc(Cl)c1)N1Cc2ccc(-c3ccnc(Nc4ccnn4C)c3)cc2C1=O [compound 2, (R)—N—((S)-1-(3-Chlorophenyl)-2-hydroxyethyl)-2-(6-(2-((1-methyl-1H-pyrazol-5-yl)amino)pyridin-4-yl)-1-oxoisoindolin-2-yl)propanamide, reference compound]",IC50,"Colo-205 cells; 72 hours, CCK-8, numeric values",88.6 nM
same,cell proliferation inhibitory activity (in words),Colo-205 cells,strong cell proliferation inhibitory activity
same,IC50,Colo-205 cells; [10],354 nM
same,Liver microsomal stability T1/2,[1],15 min
same,Liver microsomal stability T1/2,[2],403 min
same,Liver microsomal stability T1/2,[3],18 min
same,stability in liver microsomes (in words),[6]; [11],significantly improved
same,stability in liver microsomes (in words),"[6]; rat, dog and human, compared with the comparative compounds 1 and 3",significantly improved
same,enzyme inhibitory activity (in words),ERK1/2 kinase,extremely strong enzyme inhibitory activity
Cc1cccc([C@@H](CO)NC(=O)[C@@H](C)N2Cc3ccc(-c4ccnc(NC5CC(F)(F)C5)c4)c(F)c3C2=O)c1 [Embodiment 8],cell proliferation inhibitory activity (in words),Colo-205 cells,strong cell proliferation inhibitory activity
same,IC50,Colo-205 cells; [9],< 100 nM
same,IC50,ERK1/2 kinase; class symbols,< 10 nM
Cc1cccc([C@@H](CO)NC(=O)[C@@H](C)N2Cc3ccc(-c4ccnc(NC5CCOCC5)c4)c(F)c3C2=O)c1 [Embodiment 22],cell proliferation inhibitory activity (in words),Colo-205 cells,strong cell proliferation inhibitory activity
same,IC50,Colo-205 cells; [10],67.7 nM
same,enzyme inhibitory activity (in words),ERK1/2 kinase,extremely strong enzyme inhibitory activity
same,IC50,ERK1/2 kinase; numeric values,1.3 nM
Cc1cccc([C@@H](CO)NC(=O)[C@@H](C)N2Cc3ccc(-c4nc(NC5CCOCC5)ncc4Cl)c(F)c3C2=O)c1 [Embodiment 25],IC50,"Colo-205 cells; 72 hours, CCK-8, class symbols",< 100 nM
same,Liver microsomal stability T1/2,[1],18 min
same,Liver microsomal stability T1/2,[2],60 min and 70 min
same,Liver microsomal stability T1/2,[3],10 min and 15 min
same,stability in liver microsomes (in words),"[6]; rat and human, compared with the comparative compounds 1 and 4",significantly improved
same,stability in liver microsomes (in words),[6]; [11],significantly improved
same,enzyme inhibitory activity (in words),ERK1/2 kinase,extremely strong enzyme inhibitory activity
same,IC50,ERK1/2 kinase; numeric values,0.7 nM
"Cc1cccc([C@@H](CO)NC(=O)[C@@H](C)N2Cc3ncc(-c4nc(NC5CCOCC5)ncc4Cl)cc3C2=O)c1 [Comparative compound 3, (R)-2-(3-(5-Chloro-2-((tetrahydro-2H-pyran-4-yl)amino)pyrimidin-4-yl)-5-oxo-5,7-dihydro-6H-pyrrolo[3,4-b]pyridin-6-yl)-N—((S)-2-hydroxy-1-(m-tolyl)ethyl)propanamide, reference compound]",IC50,"Colo-205 cells; Homo sapiens, COLO 205, 72 h",53.1 nM
same,half-life at 1 μM,[1],6 min
same,half-life at 1 μM,[2],201 min
same,half-life at 1 μM,[3],6 min
COc1cc(F)cc([C@@H](CO)NC(=O)[C@@H](C)N2Cc3ccc(-c4nc(NC5CC(F)(F)C5)ncc4F)c(F)c3C2=O)c1 [Embodiment 43],IC50,Colo-205 cells; [9],< 100 nM
same,IC50,ERK1/2 kinase; class symbols,< 10 nM
C[C@H](C(=O)NCc1cccc(N(C)C)n1)N1Cc2ccc(-c3nc(NC4CCOCC4)ncc3F)c(F)c2C1=O [Embodiment 47],IC50,Colo-205 cells; [9],100 to 1000 nM
same,IC50,ERK1/2 kinase; class symbols,< 10 nM
Cc1cccc([C@@H](CO)NC(=O)[C@@H](C)N2Cc3ccc(-c4ccnc(NC5CCOCC5)n4)nc3C2=O)c1 [Embodiment 30],IC50,"Colo-205 cells; 72 hours, CCK-8, class symbols",100 to 1000 nM
same,IC50,ERK1/2 kinase; numeric values,6.9 nM
C[C@H](C(=O)N[C@H](CO)c1cccc(F)c1)N1Cc2ccc(-c3nc(NC4CCOCC4)ncc3Cl)nc2C1=O [Embodiment 20],IC50,Colo-205 cells; [10],246 nM
same,enzyme inhibitory activity (in words),ERK1/2 kinase,extremely strong enzyme inhibitory activity
same,IC50,ERK1/2 kinase; numeric values,1.8 nM
Cc1cccc([C@@H](CO)NC(=O)[C@@H](C)N2Cc3ccc(-c4nc(NC5COC5)ncc4Cl)nc3C2=O)c1 [Embodiment 17],IC50,Colo-205 cells; [9],100 to 1000 nM
same,IC50,ERK1/2 kinase; numeric values,5.2 nM
"(R)-2-(6-(5-Chloro-2-((tetrahydro-2H-pyran-4-yl)amino)pyrimidin-4-yl)-4-fluoro-1-oxoisoindolin-2-yl)-N—((S)-2-hydroxy-1-(m-tolyl)ethyl)propanamide [Comparative compound 4, reference compound]",IC50,"Colo-205 cells; 72 hours, CCK-8, class symbols",> 1000 nM
same,IC50,ERK1/2 kinase; numeric values,105 nM
"Cc1cccc([C@@H](CO)NC(=O)[C@@H](C)N2Cc3ccc(-c4nc(NC5CCOCC5)ncc4Cl)cc3C2=O)c1 [Comparative compound 1, (R)-2-(6-(5-Chloro-2-((tetrahydro-2H-pyran-4-yl)amino)pyrimidin-4-yl)-1-oxoisoindolin-2-yl)-N—((S′)-2-hydroxy-1l-(in-tolyl)ethyl)propanamide, reference compound]",half-life at 1 μM,[1],3 min
same,half-life at 1 μM,[2],40 min
same,half-life at 1 μM,[3],4 min
